Paper PMC9084902, “Low-Molecular Weight Protamine Overcomes Chondroitin Sulfate Inhibition of Neural Regeneration” (Frontiers in Cell and Developmental Biology, 2022)
“Also recorded” adds a separate entry of the source.

Experiments:
[1] = system: mouse cervical hemicontusion model; experiment: locomotor activity in open field, C5 hemicontusion, subcutaneous delivery; assay type: in vivo, C57BL6/NHsd mouse; settings: 15 min open field, 16 µg s.c. daily 49 days; n = 7–13
Description: (§1) The effectiveness of systemically delivered LMWP in treatment of spinal cord trauma was tested in the cervical hemicontusion model (Figure 1B). Baseline behavior was assessed 1 week before the trauma surgery, and the results were used for balanced distribution of animals to the 3 experimental groups (“sham”, “trauma + PBS” and “trauma + LMWP”). Each housing cage contained animals from all three groups. Subcutaneous injections to the back area were started on the next day after the trauma and continued daily for 49 days. LMWP was injected subcutaneously at the 16 µg dose in 200 µl of sterile PBS. The groups “sham” and “trauma + PBS” got the same volume of PBS. Behavioral assessment was started 2 weeks after the trauma and finished at the week 12.
To evaluate the locomotor activity the animals were released to the corner of a transparent plexiglas chamber (30 cm × 30 cm, MedAssiociates, St.Albans,VT; illumination about 100lx) for 15 min. The travelled distance and the time spent in vertical activity (exploratory rearings) were analyzed with the Activity Monitor v5.1 software (Med Associates, St. Albans, VT).

[2] = system: mouse cervical hemicontusion model; experiment: vertical screen test, C5 hemicontusion, ICV delivery; assay type: in vivo, C57BL6/NHsd mouse; settings: n = 6–11
Description: (§2) The mouse was placed on the brink of a horizontal wire screen (25 × 22 cm, diameter of wires 2 mm spaced at 1 cm) faced to edge. Immediately after that the screen was turned vertically to place the mouse to the upside down position at the lower edge. The time that the animal needed to climb to the upper edge was measured during 1 min. If the animal was not able to climb up or fell down from the screen the maximum time 60 s was marked as the climbing time. The average parameter of three subsequent trials repeated with at least 1 min interval was used for data analysis.

[3] = system: mouse cervical hemicontusion model; experiment: vertical screen (climbing) test, C5 hemicontusion, subcutaneous delivery; assay type: in vivo, C57BL6/NHsd mouse; settings: 16 µg s.c. daily 49 days; n = 7–13
Description: as §1, §2

[4] = system: mouse cervical hemisection model; experiment: cylinder test, C5 hemisection, ICV delivery; assay type: in vivo, C57BL6/NHsd mouse; settings: n = 5–10
Description: (§3) The mouse was placed into the glass cylinder of 13 cm in diameter and 15 cm high. A mirror was positioned at the angle behind the cylinder for better observation. The mouse was videotaped for the first 20 exploratory vertical rearings or for 5 min. The number of rearings in which the mouse used the right (impaired), the left or both limbs for support against the wall was measured. Paw preference was calculated as the ratio of total number of left limb use (left + both) to total number of right (impaired) limb use (right + both). A trial with less than 5 rearings within 5 min was excluded from the analysis.

[5] = system: cortical neurons; experiment: neurite outgrowth on chondroitinase ABC-treated aggrecan substrate, cortical neurons; assay type: cell-based, Wistar rat; settings: ChABC 4 h, 4 µM LMWP in medium, 3 DIV; p = 0.012, unpaired t-test, n = 6; Figure 5B
Description: (§4) The cortex or hippocampus were obtained from 17 days-old Wistar rat embryos and transferred to ice-cold preparation solution. Neurons were further isolated exactly as described earlier in Sahu’s publication ([Sahu et al., 2019]). Primary rat cortical or hippocampal neurons (E17 Wistar rats) were cultured in 96-well plates at the density of 20000 cells/well in Neurobasal medium supplemented with B27 serum substitute, penicillin, streptomycin and L-glutamate for 2 days in vitro (DIV). The plates were precoated with aggrecan (5 ug/ml, 150 µl/well). Protamine or protamine peptides were added to the culture medium at different concentrations. To analyze the effect of protamine or its fragment on neurite outgrowth, the plates were coated with 10 μg/ml of protamine or LMWP. For the experiment with chondroitinase, the aggrecan-coated plates were treated with chondroitinase ABC (Amsbio AMS. E1028, lot CF0029) for 4 h followed by 2 times washing with PBS before cell plating, and the cell culture imaging was carried out after 3 DIV incubation with 4 uM LMWP added to the medium. Neurite outgrowth was imaged with phase contrast microscopy (Olympus IX70 microscope and Retiga 2000R digital camera) using both x10 and x20 objectives. […] Neurite length was measured with ImageJ software and averaged from 2 to 3 independent experiments with 1–2 technical replicas in each independent experiment.

[6] = cited from earlier work
Excerpt: We therefore tested protamine fragments that might be nontoxic but would still retain the ability to overcome the CSPG inhibition. […] This fragment is found in the literature as the low-molecular weight protamine (LMWP) with the capability to penetrate through the cell membranes and to carry drug cargoes to tissues including ...

[7] = system: mouse cervical hemicontusion model; experiment: frontpaw grip strength, C5 hemicontusion, subcutaneous delivery; assay type: in vivo, C57BL6/NHsd mouse; settings: 16 µg s.c. daily 49 days
Description: as §1

[8] = system: mouse cervical hemicontusion model; experiment: cylinder test, C5 hemicontusion, ICV delivery; assay type: in vivo, C57BL6/NHsd mouse; settings: ICV LMWP; weeks 4, 6 and 8; n = 6–11
Description: as §3

[9] = system: mouse cervical hemicontusion model; experiment: cylinder test, C5 hemicontusion, subcutaneous delivery; assay type: in vivo, C57BL6/NHsd mouse; settings: 16 µg s.c. daily 49 days; n = 7–13; difference not statistically significant
Description: as §1, §3

[10] = system: cortical neurons; experiment: neurite outgrowth on aggrecan substrate, cortical neurons; assay type: cell-based, Wistar rat
Description: as §4

[11] = system: hippocampal neurons; experiment: neurite outgrowth on precoated plastic without aggrecan, hippocampal neurons; assay type: cell-based, Wistar rat; settings: precoated 10 μg/ml on plastic, no aggrecan, 2 days; about 70 neurons/replicate; p < 0.0001, n = 7
Description: as §4

[12] = system: hippocampal neurons; experiment: neurite outgrowth on aggrecan substrate, hippocampal neurons; assay type: cell-based, Wistar rat; settings: 10 μg/ml, n = 3
Description: (§5) The cortex or hippocampus were obtained from 17 days-old Wistar rat embryos and transferred to ice-cold preparation solution. Neurons were further isolated exactly as described earlier in Sahu’s publication ([Sahu et al., 2019]). Primary rat cortical or hippocampal neurons (E17 Wistar rats) were cultured in 96-well plates at the density of 20000 cells/well in Neurobasal medium supplemented with B27 serum substitute, penicillin, streptomycin and L-glutamate for 2 days in vitro (DIV). The plates were precoated with aggrecan (5 ug/ml, 150 µl/well). Protamine or protamine peptides were added to the culture medium at different concentrations. To analyze the effect of protamine or its fragment on neurite outgrowth, the plates were coated with 10 μg/ml of protamine or LMWP. For the experiment with chondroitinase, the aggrecan-coated plates were treated with chondroitinase ABC (Amsbio AMS. E1028, lot CF0029) for 4 h followed by 2 times washing with PBS before cell plating, and the cell culture imaging was carried out after 3 DIV incubation with 4 uM LMWP added to the medium. Neurite outgrowth was imaged with phase contrast microscopy (Olympus IX70 microscope and Retiga 2000R digital camera) using both x10 and x20 objectives. Processes of neurons over the diameter of the neuronal soma were interpreted as neurites. Neurite length was measured with ImageJ software and averaged from 2 to 3 independent experiments with 1–2 technical replicas in each independent experiment.

[13] = system: mouse cervical hemisection model; experiment: vertical screen test, C5 hemisection, ICV delivery; assay type: in vivo, C57BL6/NHsd mouse; settings: n = 5–10
Description: as §2

[14] = system: hippocampal neurons; experiment: cell toxicity seen in neuronal morphology / neuronal cells in vitro; assay type: cell-based, Wistar rat; settings: neuronal systems, Figures 2, 4
Description: as §5

[15] = ICV LMWP 4 µl of 1 mg/ml daily, 6 days from day 3

VSRRRRRRGGRRRR [LMWP, low-molecular weight protamine]
general locomotor activity [1]: did not affect general locomotor activity | vertical climbing test, time course [2, 15]: progressive improvement in the vertical climbing test; also recorded: progressively improve the climbing function in the vertical screen test starting from the week 3 after the trauma induction | climbing time versus sham after second post-trauma week ([2]; ICV LMWP, week 3 p = 0.1508, week 4 p = 0.1311, week 5 p = 0.6967, PBS group differed from sham until week 5): did not reveal a significant difference after the second post-trauma week | climbing test recovery versus PBS [3]: tendency for better recovery in the LMWP group compared to the PBS group | front paw use asymmetry (injured versus non-injured side) [4, 15]: reduction of front paw use asymmetry at the weeks 2, 4, 8 and 9 after the trauma; also recorded: less asymmetry in frontpaw use when the injured side was compared to the non-injured side | ipsilateral paw use [4, 15]: partially improved the ipsilateral paw use | ipsilateral paw use versus sham ([4]; ICV LMWP, week 2 p = 0.4201, week 4 p = 0.2766, week 8 p = 0.1092, week 9 p = 0.1659, PBS group differed from sham at all weeks): not significantly different from the sham animals | effect of CS digestion of aggrecan by chondroitinase ABC on LMWP-induced neurite outgrowth [5]: significantly decreased the neurite outgrowth-promoting effect of LMWP; also recorded: abolished the activity of LMWP to enhance neurite outgrowth | blood-brain barrier passage [6]: reported to pass the blood-brain barrier | cell membrane penetration and cargo delivery to tissues including the brain [6]: capability to penetrate through the cell membranes and to carry drug cargoes to tissues including the brain | toxicity relative to protamine ([6]; ref Byun et al., 2000, He et al., 2014, Edwards et al., 2020): non-toxic substitute of protamine | grip strength versus PBS ([7]; week 6 p = 0.0449, week 9 p = 0.0221, one-way ANOVA with Tukey's): significantly increased grip strength parameters on the week 6 and the week 12; also recorded: significant increase of frontpaw grip strength in comparison with the PBS-treated animals on the weeks 6 and 9 | grip strength versus PBS, week 12 ([7]; week 12 p = 0.0558, one-way ANOVA with Tukey's): trend towards increased grip strength on the week 12 | ipsilateral front paw use versus sham [8]: reduction in front paw use asymmetry starting from the week 4 after the trauma; also recorded: not significantly different from the sham group on the weeks 4, 6 and 8 after the trauma | front paw use asymmetry versus PBS [9]: tendency for better improvement of the LMWP group compared to the PBS group although the difference was not statistically significant | stimulation of neurite outgrowth versus 0 μg/ml ([10]; LMWP in medium at 1.75 µM (3.3 μg/ml), p = 0.0319, n = 6, Figure 5A): ~6 times | stimulation of neurite outgrowth versus 0 μg/ml ([10]; LMWP in medium at 3.5 µM (6.6 μg/ml), p < 0.0001, n = 6, Figure 5A): more than 20 times | total neurite length versus uncoated control [11]: increased the total neurite length as compared to the parallel control cultures | reversal of the inhibitory effect of aggrecan on neurite outgrowth (comparison among fragments) ([12]; hippocampal neurons (E17 rat), 2 days on aggrecan, precoated with aggrecan or soluble in medium, about 70 neurons/replicate, normalized to control, Figure 2L): more effective in reversing the inhibitory effect of aggrecan than the 22 amino acid fragment or the full-length protamine | length of the longest neurite, versus uncoated control ([12]; precoated with aggrecan, 2 days, 10 neurons per condition per experiment, Supplementary Figure S1B,E): slightly reduces the length of the longest neurite | increase in number of branches ([12]; precoated with aggrecan, 2 days, 10 neurons per condition per experiment, Supplementary Figure S1C,F): 3 fold | total neurite length ([12]; precoated with aggrecan, 2 days, Figure 2 and Supplementary Figure S1A,D): increase in the total neurite length | climbing time in vertical screen, time course ([13]; ICV LMWP 4 µl of 1 mg/ml daily, 6 days from day 3, weeks 2-9): progressively reduced the climbing time | climbing time difference versus PBS-treated group ([13]; ICV LMWP, week 9, p = 0.0304, Kruskal-Wallis with Dunn's): reached a statistically significant level at the week 9 after the trauma | toxicity for neuronal cells (summary) [14]: little if any toxicity even at high concentrations
